# Measurements: patent US20260055441A1, “A PCR-ELISA ANALOGOUS ANTIBODY-FREE METHOD FOR DETECTING A TARGET NUCLEIC ACID IN A SAMPLE” (UNIVERSITÄT HEIDELBERG, priority 2022, published 2026)
# Entries after “also recorded” stand apart in the source; their conditions may differ. Marks after values point to notes of the source that are not given here. Residues, ends and D or L forms follow the SMILES beside them. *: point of attachment. AMC = Cc1cc(=O)oc2cc(N*)ccc12; Cbz = O=C(OCc1ccccc1)*
# T1: papain (Carica papaya, UniProt P00784)
# T1 sequence (P00784 134-345): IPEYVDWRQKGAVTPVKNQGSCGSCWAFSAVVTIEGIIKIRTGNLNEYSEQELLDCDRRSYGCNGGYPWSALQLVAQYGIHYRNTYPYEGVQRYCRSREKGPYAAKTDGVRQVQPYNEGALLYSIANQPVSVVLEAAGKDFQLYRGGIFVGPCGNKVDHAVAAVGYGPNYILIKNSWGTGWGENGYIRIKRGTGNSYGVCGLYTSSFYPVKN
# T2: latent papain (Carica papaya, UniProt P00784)
# T2 construct: purchased Sigma Aldrich (Munich, Germany); host or cells: Papaya latex (natural source)
# T2 sequence (P00784 134-345): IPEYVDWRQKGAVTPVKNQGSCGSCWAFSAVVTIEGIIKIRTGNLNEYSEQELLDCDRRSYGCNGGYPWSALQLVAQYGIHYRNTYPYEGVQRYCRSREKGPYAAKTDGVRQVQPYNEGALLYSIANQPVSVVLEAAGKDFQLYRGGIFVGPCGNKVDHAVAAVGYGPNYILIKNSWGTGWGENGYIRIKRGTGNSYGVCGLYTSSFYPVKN
# T3: latent papain P13 (Carica papaya, UniProt P00784)
# T3 construct: purchased Sigma Aldrich (Munich, Germany); host or cells: Papaya latex (natural source)
# T3 sequence (P00784 134-345): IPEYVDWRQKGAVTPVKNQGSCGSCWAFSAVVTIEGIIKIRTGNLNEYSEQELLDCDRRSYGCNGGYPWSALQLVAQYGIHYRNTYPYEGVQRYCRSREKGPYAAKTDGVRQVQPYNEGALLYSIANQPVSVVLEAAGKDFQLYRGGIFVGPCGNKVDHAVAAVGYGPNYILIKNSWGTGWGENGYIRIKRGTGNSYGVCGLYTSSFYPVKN
# T4: H2N-CLR-CONH2
# T4 chain: CLR
# T5: dU-triazole-PEG3-ULR dimer (21) (not fully specified)
# T5 chain: ULR
# T6: H2N-CFR-CONH2
# T6 chain: CFR
# Experiments:
# [1] = biological target: T1, papain; conditions: literature (Whitesides group; Lukesh et al., 2012); cited from earlier work
# [2] = biological target: T2, latent papain; test: Latent papain reactivation with selenium/thiol activators in presence of TCEP, rates normalized to blank (FIG. 22); type: biochemical; conditions: latent papain 1 nM; for activator efficiency (normalized rate/rate blank), in words: 50 pM-100 nM activator, 1 μM TCEP (FIG. 22)
# Description: To this end, cysteine ethyl ester, DTT, DTBA (9) and SeDTBA (11) were chosen for a direct comparison. […] The resulting reaction rates were normalized against the background activity and the resulting normalized rates are presented in FIG. 22 for the concentration range of 50 pM-100 nM.
# Different assays of reactivating latent papain in solution were conducted in the course of this work. Various buffer compositions, supplements, 96 well plates, substrates, activators, concentrations as well as different latent papain forms were compared. In order to get an overview of all experiments, a standard method is described in the following and variations of this method are subsequently defined. First, the well buffer was prepared (0.1 M phosphate buffer pH 7, 4 mM EDTA, 0.01% Brij35). A 1 mM TCEP solution was prepared with 3 mM NaOH in 0.1 M Tris-HCl buffer pH 8. Papain substrate (Z-Phe-Arg-AMC or Suc-Leu-Leu-Val-Tyr-AMC) was prepared as a 200 μM solution in water and transferred equally to a PCR strip. Three serial dilutions of the activating agent with well buffer were used in the different experiments and the corresponding pipetting schemes are shown in Table 9. Papain was diluted to 0.1 μM with well buffer and transferred equally to a PCR strip. […] After mixing, 30 μL of the prepared activator concentrations (see Table 9) were added and mixed. In the last step, 3.8 μL of the substrate solution was added and mixed, to yield a final well composition of 0.1 M phosphate buffer pH 7, 1 nM papain, 2 μM substrate, activator (see Table 9), 4 mM EDTA, 0.01% Brij35 and 1 μM TCEP. For experiments with only one activator concentration of 10 μM, the transferred well buffer for each well was 368.6 μL, followed by 3.8 μL of papain, substrate and activator (1 mM in well buffer) respectively.
# [3] = biological target: T3, latent papain P13; test: Screening of peptide-based papain activators, rates normalized to cysteine ethyl ester (FIG. 19, FIG. 20); type: biochemical
# Description: L-Cysteine ethyl ester was utilized in identical peptide concentrations as a standard in order to calculate normalized reaction rates for each synthesized peptide.
# […] The assays were conducted in well buffer with 1 nM latent papain P13. In order to give a clear overview, only the normalized rates for activator concentrations of 50 nM are depicted and compared.
# Additionally, 1 μM TCEP was added to each well of the cysteine concentration series in order to examine the influence of TCEP on reaction rates of thiols.
# Different assays of reactivating latent papain in solution were conducted in the course of this work. Various buffer compositions, supplements, 96 well plates, substrates, activators, concentrations as well as different latent papain forms were compared. In order to get an overview of all experiments, a standard method is described in the following and variations of this method are subsequently defined. First, the well buffer was prepared (0.1 M phosphate buffer pH 7, 4 mM EDTA, 0.01% Brij35). A 1 mM TCEP solution was prepared with 3 mM NaOH in 0.1 M Tris-HCl buffer pH 8. Papain substrate (Z-Phe-Arg-AMC or Suc-Leu-Leu-Val-Tyr-AMC) was prepared as a 200 μM solution in water and transferred equally to a PCR strip. Three serial dilutions of the activating agent with well buffer were used in the different experiments and the corresponding pipetting schemes are shown in Table 9. Papain was diluted to 0.1 μM with well buffer and transferred equally to a PCR strip. […] 342.4 μL of TCEP containing well buffer was transferred to each well, followed by 3.8 μL papain solution. After mixing, 30 μL of the prepared activator concentrations (see Table 9) were added and mixed. In the last step, 3.8 μL of the substrate solution was added and mixed, to yield a final well composition of 0.1 M phosphate buffer pH 7, 1 nM papain, 2 μM substrate, activator (see Table 9), 4 mM EDTA, 0.01% Brij35 and 1 μM TCEP. For experiments with only one activator concentration of 10 μM, the transferred well buffer for each well was 368.6 μL, followed by 3.8 μL of papain, substrate and activator (1 mM in well buffer) respectively.
# [4] = Jacob et al., 2003; cited from earlier work
# [5] = biological target: T1, papain; conditions: Ménard et al. 1990; cited from earlier work
# [6] = cited from earlier work
# [7] = biological target: T3, latent papain P13; test: Latent papain reactivation assay with thiol activators at 10 μM, rates normalized to 10 μM cysteine (FIG. 18); type: biochemical; conditions: activator 10 μM, latent papain 1 nM, Z-Phe-Arg-AMC 2 μM, well buffer pH 7, no TCEP
# Description: All following described fluorometric assays (Examples 1-3) are based on the reaction of reversibly inactivated papain (latent papain) with an activator containing either sulfur or selenium (with the exception of TCEP). Different latent papain forms, buffer compositions and activators in various concentrations were compared. Papain was hereby transferred in buffer (standard well buffer consisted of 0.1 M phosphate pH 7, 4 mM EDTA, 0.01% Brij35 and if activators contained diselenides, 1 μM TCEP) mixed with activator and substrate inside 96 well plates (without prior washing of the plates). After reactivation, active papain hydrolyses the substrate Z-Phe-Arg-AMC (2 μM) and the resulting fluorescence was tracked every minute for 2 h. The slopes of the corresponding curves were calculated for the linear portion within the first 30 minutes and the resulting reaction rates were directly compared. Resulting reaction rates directly reflect reactivation efficiencies of each activator under each reaction condition. […] After addition of activator a fraction of latent papain is immediately reactivated in rather non-stoichiometric proportions. Complete reactivation can generally only be achieved with great excess of activator. The partial reactivation with smaller activator amounts appears almost instantaneously because the resulting reaction curve show linear progression from the start except for very low activator concentrations. After reactivation, all different latent papain forms result in the same active enzyme. If different latent papain forms show different reaction rates in identical activation assays, the efficiency of reactivation with the applied activator can be deduced. The same applies for reactivation of one latent papain form with different activators or reaction conditions.
# Several thiol compounds and cysteine containing peptide activators (see Example 4.1) were compared for their potential to reactivate latent papain. To this end, the thiol compounds and cysteine containing peptide activators were utilized in reactivation assays (see Example 5, 5.2.2.2, fluorometric method 2) of papain P13 (see Example 1, 1.2) with an activator concentration of 10 μM. For thiols not completely soluble in phosphate buffer pH 7 at high concentrations, the 1 mM stock solution was prepared in DMSO, resulting in 1% DMSO in the reaction mixture. In order to normalize the observed reaction rates between assays, a 10 μM cysteine sample was additionally measured in every assay and reaction rates of the examined thiols were divided through the reaction rates produced by the 10 μM cysteine standard. Additionally, a measurement with 1 mM cysteine was performed in order to achieve maximal papain activation and therefore the maximal reaction rate within the confines of the assay. The resulting normalized rates are compared in FIG. 18.
# Different assays of reactivating latent papain in solution were conducted in the course of this work. Various buffer compositions, supplements, 96 well plates, substrates, activators, concentrations as well as different latent papain forms were compared. In order to get an overview of all experiments, a standard method is described in the following and variations of this method are subsequently defined. First, the well buffer was prepared (0.1 M phosphate buffer pH 7, 4 mM EDTA, 0.01% Brij35). A 1 mM TCEP solution was prepared with 3 mM NaOH in 0.1 M Tris-HCl buffer pH 8. Papain substrate (Z-Phe-Arg-AMC or Suc-Leu-Leu-Val-Tyr-AMC) was prepared as a 200 μM solution in water and transferred equally to a PCR strip. Three serial dilutions of the activating agent with well buffer were used in the different experiments and the corresponding pipetting schemes are shown in Table 9. Papain was diluted to 0.1 μM with well buffer and transferred equally to a PCR strip. After preparation of the abovementioned solutions, TCEP (1 mM solution) was added to well buffer to yield a final TCEP concentration of 1.1 μM. […]
# [8] = biological target: T4, H2N-CLR-CONH2
# [9] = biological target: T5, dU-triazole-PEG3-ULR dimer (21)
# [10] = biological target: T6, H2N-CFR-CONH2
# [11] = FIG. 20, concentration series 50 nM-10 μM
# [12] = concentration series 50 nM-10 μM, papain P13 1 nM (FIG. 20)
molecule,measurement,setting,value
"CN(C(=O)CS)N(C)C(=O)CS [DMH, N,N-dimethyl-N,N′-bis(mercaptoacetyl)hydrazine]",papain activation rate compared to DTT,[1],32 times
"CN(C)C(=O)[C@H](S)CC[C@H](S)C(=O)N(C)C [DTA, meso-2,5-dimercapto-N,N,N,N-tetramethyladipamide]",papain activation rate compared to DTT,[1],4.5 times
"N[C@H](CS)CCS [DTBA (9), dithiobutylamine]",papain activation rate compared to DTT,[1],14 times
same,rate relative to DTT,"[2]; activator 50 nM, 1 μM TCEP",13.6 times
O[C@@H](CS)[C@@H](O)CS [DTT],"activator efficiency (normalized rate/rate blank), in words",[2],no substantial rate increase
"CCOC(=O)[C@@H](N)CS.Cl [L-cysteine ethyl ester, L-Cysteine ethyl ester hydrochloride]",potency relative to (L-)cysteine,[3]; [11],approximately 2.25 times
same,"activator efficiency (normalized rate/rate blank), in words",[2],no substantial rate increase
N[C@@H](CS)C(=O)O [L-cysteine],redox potential E^0′,[4],−0.233 V
same,normalized rate compared to cysteine ethyl ester,[3]; [12],around 40%
same,normalized rate compared to the tripeptide H2N-CLR-CONH2,[3]; [12],around 25%
"Cc1cc(=O)oc2cc(NC(=O)[C@H](CCCNC(=N)N)NC(=O)[C@H](Cc3ccccc3)NC(=O)OCc3ccccc3)ccc12 [Z-Phe-Arg-AMC, Z-Phe-Arg 7-amido-4-methylcoumarin] (Cbz-Phe-Arg-{AMC})",Km,[5],420 µM
same,kcat,[5],52 s⁻¹
"SCc1ccccc1 [benzyl mercaptan, Benzylmercaptan]",pKa (H2O),"[6]; published values, source mark b or d legible",9.4^b
same,normalized ratio rate/rate 10 μM cysteine of substrate hydrolysis after reactivation of latent papain,[7],1.69
O=S(=O)(CCS)CCS [bis(2-mercaptoethyl) sulfone],"pKa of thiol, as discussed in text",[6],7.9
same,normalized ratio rate/rate 10 μM cysteine of substrate hydrolysis after reactivation of latent papain,[7],3.17
N[C@@H](C[SeH])C(=O)O [selenocysteine],redox potential E^0′,[4],−0.488 V
same,pKa,[6]; Huber et al. 1967,5.2
same,"activator efficiency, in words",[3]; [11],more potent activators compared to the tripeptide
same,rate relative to the tripeptide H2N-CLR-CONH2,"[3]; concentration series 50 nM-10 μM (FIG. 20), selenocysteine prepared with TCEP",6.5 times
seleno-dithiobutylamin [SeDTBA (11)],"activator efficiency (normalized rate/rate blank), in words",[2],second most efficient activator; also recorded: almost twice as high compared to DTBA (9)
"latent papain, reversibly inactivated with S-methyl methanethiosulfonate (-S-S-CH3) (protein) IPEYVDWRQKGAVTPVKNQGSCGSCWAFSAVVTIEGIIKIRTGNLNEYSEQELLDCDRRSYGCNGGYPWSALQLVAQYGIHYRNTYPYEGVQRYCRSREKGPYAAKTDGVRQVQPYNEGALLYSIANQPVSVVLEAAGKDFQLYRGGIFVGPCGNKVDHAVAAVGYGPNYILIKNSWGTGWGENGYIRIKRGTGNSYGVCGLYTSSFYPVKN","normalized ratio rate/rate 10 uM cysteine of substrate hydrolysis after reactivation of latent papain (1 nM), activator 10 uM (fold of the rate with L-cysteine)",[8],2
same,normalized ratio rate/rate blank of substrate hydrolysis after reactivation of latent papain (1 nM) with activator 1-15 nM,[9],The normalized reaction rates for papain P20 now appeared the highest of all papain forms
same,"normalized ratio rate/rate 10 uM cysteine of substrate hydrolysis after reactivation of latent papain (1 nM), activator 10 uM (fold of the rate with L-cysteine)",[10],2
